We go through six molecules from publication PMC12123366, “Effect of urea and squaramide IMPDH inhibitors on C. parvum: in vitro trial design impacts the assessment of drug efficacy” (International Journal for Parasitology: Drugs and Drug …, 2025).

Data set [1] deals with C. parvum. On the set-up: method as in Funkhouser-Jones et al., 2020. Conditions: ref Funkhouser-Jones et al., 2020; cited from earlier work.
A short description of data set [2]: CytoTox 96 Non-Radioactive Cytotoxicity Assay. To be noted: human; HCT-8 cells, 10 µM. The class given is cell-based, Human. On the procedure: (§1) HCT-8 cell lines (Human ileocecal adenocarcinoma) were purchased from The European Collection of Authenticated Cell Cultures (ECACC) under catalogue number No 90032006) and maintained with regular subculturing in a growth medium consisting in a RPMI 1640 medium supplemented with 1 mM sodium pyruvate, 2 mM l-glutamine, 10 % (vol/vol) of heat-inactivated fetal calf serum, 100 U/mL of penicillin and 100 μg/mL of streptomycin. Cells were grown in an incubator at 37 °C with 5 % (vol/vol) CO2 until monolayers reached 80–90 % confluency. Cells were cultivated in 96-well format plate for molecular analysis and in Lab-Tek™ Chamber Slides for microscopic analysis. 50,000 cells were seeded and incubated during 24 h (until confluency) before infection.
(§2) The compounds (2 mg/mL in DMSO) were diluted to 500 μM and serially diluted in maintenance medium. The cytotoxicity of the compounds was assessed using the CytoTox 96® Non-Radioactive Cytotoxicity Assay (Promega, G1790) in accordance with the manufacturer's protocol.
(§3) An initial screening experiment was conducted on the full library to evaluate the cytotoxicity effects on HCT-8 cells. Nitrophenylurea 12 was identified as being cytotoxic so was not progressed further (See Supporting Information). In total, 21 candidates were assessed for their ability to inhibit C. parvum replication at a concentration of 10 μM. Each compound was added at the start of the infection of HCT-8 cells (T0) and remained in the culture for 48 h post infection (hpi). Parasitic quantification was then performed using a molecular method (qPCR). Of the 21 compounds tested, nine were effective inhibitors, reducing parasite proliferation by 80 % or more (Fig. 6). A clear trend emerged with all of the benzyl-substituted ureas 6–10 displaying poor inhibitory activity, regardless of the attached heteroaryl substituent. […] Two exceptions to this were imidazole-containing analogues 18 and 19. […] Among the squaramide series, the results were highly dependent on the nature of the substituent, ranging from high (e.g. ketone 29, furan 32), medium (e.g. 3-pyrazole 30) to low (e.g. 4-pyrazole 31) anti-cryptosporidial activity.

In data set [3] the test system is HCT-8 cells. In words: CytoTox 96 Non-Radioactive Cytotoxicity Assay. The class given is cell-based, Human. Conditions: for Viability: 10 µM. On the procedure: as §1, §2, §3
Data set [4] deals with C. parvum. In words: Inhibition of C. parvum replication in infected HCT-8 cells, parasite quantification by qPCR. Conditions: qPCR; for anti-cryptosporidial activity (in words): added at T0, 48 hpi. Type of data set: cell-based, Cryptosporidium parvum (Iowa strain) in human HCT-8 cells. The protocol: as §1
(§4) C. parvum oocysts of “Iowa” strain was purchased from Waterborne Inc. and stored in PBS at 4 °C. A ratio of one oocyst per cell was used to infect HCT-8 cell. Oocysts suspension was incubated with 10 % of a solution (vol/vol) containing 0.5 % sodium hypochlorite for 10 min at 4 °C. After a washing step by centrifugation at 1800g for 15 min at 4 °C, oocysts were incubated in acidified water (pH 2.4) containing 0.025 % (wt/vol) of trypsin, at 37 °C for 20 min, to trigger excystation (infectivity assay developed by [Keegan et al., 2003]). After a third centrifugation step at 1800 g for 10 min, oocysts were suspended in a maintenance medium. The maintenance medium consisted of RPMI 1640 medium with 2 mM l-glutamine, 5 mM glucose, 0.5 μM folic acid, 7 μM 4-amino-benzoic acid, 0.1 μM calcium pantothenate, 50 nM ascorbic acid, 2 % (vol/vol) heat inactivated fetal calf serum and 100 U/mL of streptomycin/penicillin. Before oocyst inoculation, the growth medium was switched with maintenance medium. Triggered oocysts were finally added on monolayers and incubated during 48 h at 37 °C in a 5 % (vol/vol) CO2 atmosphere.
as §2
The COWP gene (GenBank no. AF248743) was amplified by qPCR following the previously described protocol ([Guy et al., 2003]), and the parasitic concentration was determined using the standard range of C. parvum oocyst concentrations. Briefly, serial dilutions from a pure C. parvum oocyst suspension were made starting from a stock solution of 5 × 10^7 oocysts (4 × 10^5 – 2 × 10^5 – 1 × 10^5 – […]–2.5 × 10^3–1.25 × 10^3 oocysts) and the standard curve for quantifying parasites was created to obtain a correlation between Cq values and the Log of concentration.
At the end of the experiment, supernatants from the C. parvum-infected cell cultures were collected. The cell layers were then washed (1x PBS), detached using trypsin (0.25 %), and centrifuged (10,000×g, 10 min). The resulting cell pellet was re-suspended in 150–200 μL of sterile 1x PBS and stored at −20 °C for later DNA extraction. DNA extraction of C. parvum was performed using the Purelink™ Microbiome Purification Kit (Invitrogen™) following the manufacturer's protocol “Transport Media and Microbial Culture Samples” ([Invitrogen, 2015]).
FRePCR reactions were formulated to a volume of 25 μL and comprised of 1.25 μL of primers (10 μM), 0.05 μL probe (100 μM), 12.5 μL Master Mix 2X, LightCycler 480 Probes Master (ref. 04707494001, Roche), 4.95 μL H2O nuclease-free and 5 μL of DNA template. Quantitative PCR was run on a CFX96 real time PCR system (BioRad) with an initial step of activation (10 min 95 °C) following by 40 cycles with cycling conditions as follows: 95 °C for 10 s, 60 °C for 1 min. BioRad CFX manager software was used to analyse the data. Samples were considered negative if Cq ≥ 40.
A common way of defining a 50 % response is to use a mathematical model like the 4-parameter logistic model (4 PL) ([Sebaugh, 2011]). […]

Data set [5] relates to C. parvum. The experiment in a line: Quantification of C. parvum development in HCT-8 cells by immunofluorescence microscopy. The class given is cell-based, Cryptosporidium parvum (Iowa strain) in human HCT-8 cells. To be noted: for reduction in parasite quantification: 7.5 μM. On the procedure:
as §1, §4
After aspiration of the supernatant from the Nunc™ Lab-Tek™ Chamber slide wells, cells were rinsed with PBS 1X. A fixation step was then performed using methanol during 8 min at 4 °C. Cryptosporidium developmental forms were labelled with a polyclonal IgG antibodies reaction kit tagged with Cy3 (Sporo-Glo™, Waterborne Inc.) and oocysts were labelled with FL-Crypt-a-Glo™, a fluorescein-labelled mouse monoclonal antibody made to oocyst outer wall antigenic sites (epitopes) of C. parvum. Antibodies were 1/20th diluted and incubated on cells for 1 h at room temperature. DNA was labelled with Hoechst for 5 min at room temperature. Slides were then coverslipped with a no fading mounting medium (Waterborne Inc.) and observed with a Leica DMi8 microscope. Each dilution was performed in triplicate and, for each well, ten images were taken at 400× magnification. Parasite quantification was carried out automatically using the StarDist neural network, which was specifically trained to detect and quantify C. parvum parasites.
To confirm our initial findings, we employed an alternative method using immunofluorescence microscopy to quantify C. parvum development in the presence of inhibitors (Fig. S1). […] The results corroborated our initial screening data, confirming the high efficacy of all tested chloronitrophenyl urea analogues, except for imidazole derivatives 18 and 19.
To test this hypothesis, increasing concentrations of squaramide 32 (i.e. 0, 2, 4 and 8 μM) were applied at different infection times: at 0 hpi (hours post infection), to assess the impact on parasite invasion; at 4 hpi, to examine the effect on the early stages of intracellular development; and at 30 hpi, to evaluate the influence on late stage intracellular development. The microscopic images in Fig. 7 illustrate the effect of 32 when applied at the onset of infection and at 30 hpi. Using fluorescent antibodies, the intracellular development of C. parvum is highlighted by green fluorescence, which allows for quantification of the number of parasites per image.

For data set [6], the system named is Cryptosporidium. Conditions: cited from earlier work.

Structures are written as SMILES. pIC50: −log10 of the molar value.

Take `COc1ccc(NC(=O)N2CCCCN3[C@H](CN(C)C)[C@H](c4ccc(C#Cc5ccccc5)cc4)[C@@H]3C2)cc1` [BRD7929]: in data set [1], the “stage-specific effect on C. parvum development (in words)” value was “blocks nuclear division and arrest development at the trophozoite”.
`CC(C)(NC(=O)Nc1ccc(Cl)c([N+](=O)[O-])c1)c1cccc(-c2cccc([N+](=O)[O-])c2)c1` [Compound 12, 1-(4-chloro-3-nitrophenyl)-3-(2-(3′-nitro-[1,1′-biphenyl]-3-yl)propan-2-yl)urea]: the viability at 10 µM in data set [2] came to 58%. Moreover, in data set [3] (initial screening), the “cytotoxicity (in words)” value is “cytotoxic”.
On to `CC(C)(Nc1c(Nc2ccc(Cl)c([N+](=O)[O-])c2)c(=O)c1=O)c1cccc(-c2cn[nH]c2)c1` [Compound 31, (3-((2-(3-(1H-Pyrazol-4-yl)phenyl)propan-2-yl)amino)-2-((4-chloro-3-nitrophenyl)amino)-4-oxocyclobut-2-en-1-ylidene)oxonium], for which the “anti-cryptosporidial activity (in words)” value in data set [4] (10 μM) is reported as “low”. For the same molecule, in data set [3], the Viability was determined as 96.97%.
As for `CC(C)(Nc1c(Nc2ccc(Cl)c([N+](=O)[O-])c2)c(=O)c1=O)c1cccc(-c2ccco2)c1` [Compound 32, (2-((4-Chloro-3-nitrophenyl)amino)-3-((2-(3-(furan-2-yl)phenyl)propan-2-yl)amino)-4-oxocyclobut-2-en-1-ylidene)oxonium], the “anti-cryptosporidial activity (in words)” value in data set [4] (10 μM) is “high”. Further, the “inhibition rate of C. parvum replication” value in data set [4] (10 μM, added at start of infection (T0), 48 hpi, mean ± SD (n = 3 wells)) was 87.2 ± 0.8%. The pIC50 in data set [4] (compounds at 0, 3, 6 and 9 μM added at t0 and left until 48 hpi, read-out: IC50) is 5.66. For the same molecule, the Viability in data set [3] amounted to 94.94%. Moreover, the “effect on intracellular development (green fluorescence)” value in data set [5] (2 μM, applied at onset of infection (0 hpi)) was “significantly reduces green fluorescence”. For the same molecule, the “effect on distribution of parasite area” value in data set [5] (7.5 μM or 15 μM, added at 30 hpi until 48 hpi) is “decreases the prevalence of both small and large parasites”. The “reduction in parasite quantification” value in data set [5] (added at 0 hpi, fluorescence microscopy) was more than 80%; in data set [5] (added at 30 hpi, until 48 hpi, fluorescence microscopy) it was 46%. Also, the “reduction of parasite load” value in data set [5] (8 μM, added at 30 hpi, 18 h of treatment, fluorescence microscopy) is on record as less than 50%.
For the molecule `CNC(=O)c1ccc(-c2cnc3cnc(C(=O)N(C)c4ccc(Cl)cc4)cn23)cc1` [KDU691], the “stage-specific effect on C. parvum development (in words)” value in data set [1] is reported as “effective at later stages”.
Take `CC(=O)Oc1ccccc1C(=O)Nc1ncc([N+](=O)[O-])s1` [nitazoxanide]: in data set [6] (even when administered in high doses, ref Rossignol et al., 1998), the “efficacy in immunocompromised patients (in words)” value is recorded as “ineffective”. In data set [6] (ref Amadi et al., 2002), the “efficacy in children (in words)” value is “limited”.
